Where two headings read alike, the source gives them in different places.
What was measured:
HT-29 cells [1] = experiment: Seahorse oxygen consumption rate / extracellular acidification rate; format: cell-based, human
HT-29 cells [2] = experiment: Intracellular ROS by flow cytometry with CM-H2-DCF-DA; format: cell-based, human; conditions: 24 h; for change in DCF fluorescence (intracellular ROS) vs vehicle: 50 nM; for intracellular ROS (DCF) after high concentration: 500 nM
HT-29 cells [3] = experiment: Colony formation; format: cell-based, human
HT-29 cells [4] = tested on: HT-29 cells
HT-29 cells [5] = experiment: MTT cell growth assay; format: cell-based, human; conditions: for IC50: Homo sapiens, HT-29, 72 h, read-out: IC50 inhibition of HT-29 cell proliferation; for 50% growth inhibition of HT-29 cells reached within 72 h: 100 nM, time course up to 72 h
NOX2 [6] = target: T1, NOX2 (Homo sapiens, UniProt P04839); experiment: PMA-induced superoxide anion luminescence assay, PMNs; format: cell-based
NOX2 [7] = target: T1, NOX2; experiment: PMA-induced superoxide anion luminescence assay, differentiated HL-60 cells; format: cell-based
HT-29 cells [8] = experiment: HT-29 cell growth by cell counting after SOD/catalase; format: cell-based, human; conditions: 96 h, 0-2000 U/ml, significant at ≥ 500 U/ml
[9] = Homo sapiens, HT-29, 1 h, read-out: 60-min treatment IC50, cellular respiration (OCR)
[10] = Homo sapiens, HT-29, 24 h, read-out: 24-h treatment IC50, cellular respiration (OCR)
[11] = Homo sapiens, HT-29, 240 h, read-out: 10-day treatment IC50, colony formation
[12] = Homo sapiens, HT-29, read-out: 2-h treatment IC50, colony formation
[13] = ratio of NOX2 IC50 values, PMN vs HL-60
[14] = read-out: 24-h treatment IC50, cellular respiration (OCR), HT-29, 24 h
[15] = read-out: 30-min treatment IC50, cellular respiration (OCR), HT-29, 30 min
[16] = read-out: 60-min treatment IC50, cellular respiration (OCR), HT-29, 60 min
[17] = read-out: 10-day treatment IC50, colony formation, HT-29, 10-day exposure
[18] = Homo sapiens, HT-29, 1 h, read-out: 60-min treatment IC50, cellular respiration (OCR), HT-29, 60 min
[19] = Homo sapiens, HT-29, 24 h, read-out: 24-h treatment IC50, cellular respiration (OCR), HT-29, 24 h

In the case of `c1ccc2c(c1)[I+]c1ccccc1-2` [DPI, Diphenylene iodonium, reference compound], the “decrease in oxygen consumption” value (HT-29 cells [1]; 2 μM, immediate effect) is reported as 80%, the “concentration at which ECAR increased” value (HT-29 cells [1]; HT-29, 24-h treatment) is reported as 316 nM and the “concentration at which OCR began to decrease” value (HT-29 cells [1]; HT-29, 24-h treatment) is reported as 31.6 nM. For the same molecule, the IC50 (HT-29 cells [1]; [9]) was 4570 nM, the IC50 (HT-29 cells [1]; [10]) was 200 ± 245 nM and the “change in DCF fluorescence (intracellular ROS) vs vehicle” value (from here on “change in DCF fluorescence”) (HT-29 cells [2]) was “left-shift (decrease) in DCF fluorescence”. The “intracellular ROS (DCF) after high concentration” value (“intracellular ROS (DCF)” for short) (HT-29 cells [2]) was “increases in intracellular ROS”, the IC50 (HT-29 cells [3]; [11]) was 39 ± 23 nM and the IC50 (HT-29 cells [3]; [12]) was 9260 nM. For the same molecule, the “effect on mitochondrial ROS production (MitoSox)” value (HT-29 cells [4]; 1 μM, 2 h) was “right shift in MitoSox fluorescence”, the “effect on mitochondrial ROS production (MitoSox)” value (HT-29 cells [4]; concentrations ≤ 200 nM, 24 h) was “no effect” and the IC50 (HT-29 cells [5]) was about 450 nM.

`Brc1ccc2c(c1)[I+]c1cc(Br)ccc1-2.[Br-]` [compound 104, Dibenziodolium, 3,7-dibromo-, bromide] was tested, and the IC50 (HT-29 cells [1]; [9]) was 1470 nM, the IC50 (HT-29 cells [1]; [10]) was 74 ± 54 nM and the “change in DCF fluorescence” value (HT-29 cells [2]) was “left-shift (decrease) in DCF fluorescence”. For the same molecule, the “intracellular ROS (DCF)” value (HT-29 cells [2]) was “did not demonstrate this effect”, the IC50 (HT-29 cells [3]; [11]) was 9 ± 2 nM and the IC50 (HT-29 cells [3]; [12]) was 1220 nM. For the same molecule, the IC50 (NOX2 [6]) was 481 ± 44 nM, the “50% growth inhibition of HT-29 cells reached within 72 h” value (HT-29 cells [5]) was “achieved 50% growth inhibition” and the IC50 (HT-29 cells [5]) was 150 to 250 nM. The “fold more potent in HL-60 leukemia line compared to PMNs” value (from here on “fold more potent in HL-60 leukemia line”) (NOX2 [7]; [13]) was 2- to 5 fold.

`COC(=O)c1ccc2c(c1)[I+]c1ccccc1-2.Cc1ccc(S(=O)(=O)[O-])cc1` [compound 140, Dibenz[b,d]iodolium, 3-(methoxycarbonyl)-, salt with 4-methyl-benzenesulfonic acid (1:1)] gave an IC50 (HT-29 cells [1]; [14]) of 76 ± 21 nM, an IC50 (HT-29 cells [1]; [15]) of 678 ± 201 nM and an IC50 (HT-29 cells [1]; [16]) of 475 ± 116 nM. The “intracellular ROS (DCF)” value (HT-29 cells [2]) was “did not demonstrate this effect”, the IC50 (HT-29 cells [3]; [17]) was 40 ± 32 nM and the “fold more potent in HL-60 leukemia line” value (NOX2 [7]; [13]) was 2- to 5 fold.

For `O=[N+]([O-])c1ccc2c(c1)[I+]c1cc([N+](=O)[O-])ccc1-2.[Br-]` [compound 392, Dibenziodolium, 3,7-dinitro-, bromide], the “effect on cellular metabolic activity (OCR/ECAR)” value (HT-29 cells [1]; 24 h, concentrations ≤ 316 nM) was “no adverse effects”, the IC50 (HT-29 cells [1]; [18]) was 2180 nM and the IC50 (HT-29 cells [1]; [19]) was about 800 nM. The IC50 (HT-29 cells [1]; [14]) was 801 ± 194 nM, the “change in DCF fluorescence” value (HT-29 cells [2]) was “left-shift (decrease) in DCF fluorescence” and the “intracellular ROS (DCF)” value (HT-29 cells [2]) was “did not demonstrate this effect”. The IC50 (HT-29 cells [3]; [11]) was 27 ± 28 nM, the IC50 (NOX2 [6]) was 850 ± 197 nM and the “fold more potent in HL-60 leukemia line” value (NOX2 [7]) was 2- to 5 fold.

`O=[N+]([O-])c1ccc2c(c1)[I+]c1ccccc1-2.[Cl-]` [compound 428, Dibenz[b,d]iodolium, 3-nitro-, chloride] was tested, and the IC50 (HT-29 cells [1]; [18]) was 211 ± 33 nM, the IC50 (HT-29 cells [1]; [19]) was 45 ± 23 nM and the “change in DCF fluorescence” value (HT-29 cells [2]) was “left-shift (decrease) in DCF fluorescence”. For the same molecule, the “intracellular ROS (DCF)” value (HT-29 cells [2]) was “increases in intracellular ROS”, the IC50 (HT-29 cells [3]; [11]) was 11 ± 6 nM and the IC50 (HT-29 cells [3]; [12]) was 77 ± 12 nM. The IC50 (HT-29 cells [3]; Homo sapiens, HT-29, read-out: 6-h treatment IC50, colony formation) was 29 ± 23 nM and the “50% growth inhibition of HT-29 cells reached within 72 h” value (HT-29 cells [5]) was “achieved 50% growth inhibition”.

In the case of `O=[N+]([O-])c1cccc2c1-c1c(cccc1[N+](=O)[O-])[I+]2.[Br-]` [compound 521, Dibenziodolium, 1,9-dinitro-, salt with bromide (1:1)], the “24-h treatment IC50, cellular respiration (OCR)” value (HT-29 cells [1]; HT-29, 24 h) is reported as “No effect”, the IC50 (HT-29 cells [1]; [15]) is reported as 1670 nM and the IC50 (HT-29 cells [1]; [16]) is reported as 1000 nM. It also gave an IC50 (HT-29 cells [3]; [17]) of 488 ± 101 nM.

B1: catalase: ROS detoxifying enzyme, human catalase (Sigma Aldrich) (protein, UniProt P04040 2-527, looked up)
Catalase: ADSRDPASDQMQHWKEQRAAQKADVLTTGAGNPVGDKLNVITVGPRGPLLVQDVVFTDEMAHFDRERIPERVVHAKGAGAFGYFEVTHDITKYSKAKVFEHIGKKTPIAVRFSTVAGESGSADTVRDPRGFAVKFYTEDGNWDLVGNNTPIFFIRDPILFPSFIHSQKRNPQTHLKDPDMVWDFWSLRPESLHQVSFLFSDRGIPDGHRHMNGYGSHTFKLVNANGEAVYCKFHYKTDQGIKNLSVEDAARLSQEDPDYGIRDLFNAIATGKYPSWTFYIQVMTFNQAETFPFNPFDLTKVWPHKDYPLIPVGKLVLNRNPVNYFAEVEQIAFDPSNMPPGIEASPDKMLQGRLFAYPDTHRHRLGPNYLHIPVNCPYRARVANYQRDGPMCMQDNQGGAPNYYPNSFGAPEQQPSALEHSIQYSGEVRRFNTANDDNVTQVRAFYVNVLNEEQRKRLCENIAGHLKDAQIFIQKKAVKNFTEVHPDYGSHIQALLDKYNAEKPKNAIHTFVQSGSHLAAREKANL
In the case of B1, the “effect on proliferation of HT-29 cells vs control-treated cells” value (HT-29 cells [8]) is reported as “reduced the proliferation”.
